The Kd is the constant that tells how readily two partners part at equilibrium.

Data on two molecules can be found in paper PMC4869175, “Evidence that phytochrome functions as a protein kinase in plant light signalling” (Nature Communications, 2016).

One assay has as its target T1, full-length AsphyA (Avena sativa, UniProt P06593).
T1 construct: Full-length phytochrome genes of AsPHYA; made in house; host or cells: Pichia pastoris GS115
T1 sequence (P06593 1-1129): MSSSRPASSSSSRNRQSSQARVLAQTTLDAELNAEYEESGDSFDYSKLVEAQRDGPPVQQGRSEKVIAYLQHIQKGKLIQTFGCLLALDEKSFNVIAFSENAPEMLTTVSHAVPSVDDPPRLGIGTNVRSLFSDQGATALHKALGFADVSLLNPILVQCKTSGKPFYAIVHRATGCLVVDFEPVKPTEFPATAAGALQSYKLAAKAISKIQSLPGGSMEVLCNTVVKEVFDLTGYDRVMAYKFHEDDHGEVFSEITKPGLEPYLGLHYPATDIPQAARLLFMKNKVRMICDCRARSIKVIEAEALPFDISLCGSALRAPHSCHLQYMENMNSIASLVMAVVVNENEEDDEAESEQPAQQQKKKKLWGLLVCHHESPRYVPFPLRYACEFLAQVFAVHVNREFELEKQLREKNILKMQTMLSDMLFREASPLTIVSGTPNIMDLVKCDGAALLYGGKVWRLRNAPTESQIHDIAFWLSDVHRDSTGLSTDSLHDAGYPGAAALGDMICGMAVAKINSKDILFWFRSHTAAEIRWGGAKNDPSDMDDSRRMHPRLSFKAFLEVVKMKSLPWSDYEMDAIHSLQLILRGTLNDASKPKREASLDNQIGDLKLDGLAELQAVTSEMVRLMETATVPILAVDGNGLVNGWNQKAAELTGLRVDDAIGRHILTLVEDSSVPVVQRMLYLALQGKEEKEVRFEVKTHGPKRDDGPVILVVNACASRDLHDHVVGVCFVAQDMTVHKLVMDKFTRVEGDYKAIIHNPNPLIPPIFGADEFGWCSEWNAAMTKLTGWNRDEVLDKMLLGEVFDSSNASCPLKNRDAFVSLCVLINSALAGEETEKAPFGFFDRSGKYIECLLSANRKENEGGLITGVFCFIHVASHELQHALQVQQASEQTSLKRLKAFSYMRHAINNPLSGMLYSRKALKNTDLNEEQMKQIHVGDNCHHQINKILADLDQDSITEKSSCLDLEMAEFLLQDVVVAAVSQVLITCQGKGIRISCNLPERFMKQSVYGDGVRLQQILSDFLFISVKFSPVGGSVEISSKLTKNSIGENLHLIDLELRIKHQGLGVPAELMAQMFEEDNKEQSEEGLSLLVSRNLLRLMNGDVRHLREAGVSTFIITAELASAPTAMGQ
The assay can be described thus: Binding parameters of ATP by Scatchard plot using BODIPY-FL-ATP. To be noted: as restated in Discussion; Scatchard plot with BODIPY-FL-ATP; read-out: Kd value (ATP-binding site). As for the experimental part: (§1) To estimate dissociation constant (Kd) and the number of binding sites (n) of ATP in AsphyA proteins, an ATP analogue BODIPY-FL-ATP (BODIPY FL 2′-(or-3′)-O-(N-(2-aminoethyl)urethane) adenosine triphosphate; Molecular Probes) was used. 0.5 μM AsphyA proteins were incubated with increasing concentration of BODIPY-FL-ATP (0.5–5 μM) for 10 min at 30 °C, and free (unbound) ATP analogue was separated from the ATP analogue-protein complex by using Amicon Ultra Centrifugal Filter with MWCO of 10,000 Da for 5 min at 4,000g. The spectrophotometric absorbance was then measured to determine the BODIPY-FL-ATP concentrations within flow-through and the complex solutions by using Shimadzu UV-1800 spectrophotometer. […] The concentrations of BODIPY-FL-ATP were also double-checked by measuring the emission intensity of BODIPY fluorophore at the excitation wavelength of 500 nm and emission wavelength of 515 nm. The fluorescence of free BODIPY-FL-ATP in the absence of any protein component was used as a linear standard curve. The Kd and n values were then calculated by a Scatchard plot of r/[BODIPY-FL-ATP]free versus r, where r is the molar ratio of [BODIPY-FL-ATP]bound to [AsphyA]total.
(§2) Supplementary Figure 12. Determination of binding parameters of ATP in AsphyA proteins. The number of binding sites (n) and dissociation constant (Kd) of ATP in AsphyA proteins were determined by Scatchard plots using an ATP analogue, BODIPY-FL-ATP (BODIPY® FL 2′-(or-3′)-O-(N-(2-aminoethyl)urethane) adenosine triphosphate). The n and Kd values were calculated from the slopes (-1/Kd) and x-axis intercepts (n) of the Scatchard plot of r/[BODIPY-FL-ATP]free versus r, where r was the molar ratio of [BODIPY-FL-ATP]bound to [AsphyA]total. The n values of full-length (FL) AsphyA and photosensory core (66-610) were both calculated at around one per polypeptide, and the Kd values were calculated at approximately 0.87 × 10^-6 M for FL-AsphyA, 0.72 × 10^-6 M for […]
(§3) level, possibly due to too low ATP binding.
(§4) (1 picture or pasted object on this page, not shown here)

Another assay concerns the target T2, T418D AsphyA mutant (Avena sativa, UniProt P06593, T418D).
T2 construct: After preparing purified full-length AsphyA mutants; made in house; host or cells: Pichia pastoris GS115
The assay is described as above. The method, then: as §1, §2, §3, §4

The target in assay [1] is T3, PAS-GAF-PHY photosensory core of AsphyA (66-610aa) (Avena sativa, UniProt P06593 66-610, phycocyanobilin chromophore assembled (chromophore-binding site C322)).
T3 construct: Avena sativa phytochrome A, residues 66-610 (PAS-GAF-PHY photosensory core); also called the photosensory core; source: phycocyanobilin added in vitro
T3 sequence (looked up): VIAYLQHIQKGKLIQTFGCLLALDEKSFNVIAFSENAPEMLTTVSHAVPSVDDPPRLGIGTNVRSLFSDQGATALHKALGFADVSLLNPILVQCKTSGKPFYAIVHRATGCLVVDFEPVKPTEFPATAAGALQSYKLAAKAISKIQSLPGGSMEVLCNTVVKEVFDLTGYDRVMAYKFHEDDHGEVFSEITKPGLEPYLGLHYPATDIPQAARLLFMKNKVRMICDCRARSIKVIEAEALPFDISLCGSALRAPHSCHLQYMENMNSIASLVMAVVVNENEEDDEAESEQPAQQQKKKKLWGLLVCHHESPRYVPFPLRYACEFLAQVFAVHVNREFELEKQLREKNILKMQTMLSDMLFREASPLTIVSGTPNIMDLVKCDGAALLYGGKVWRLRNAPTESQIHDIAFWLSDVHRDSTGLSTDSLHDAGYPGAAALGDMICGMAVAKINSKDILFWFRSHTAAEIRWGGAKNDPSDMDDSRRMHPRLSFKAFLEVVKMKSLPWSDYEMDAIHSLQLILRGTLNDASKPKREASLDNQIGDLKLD
The assay can be described thus: pull-down; GST/strep-fused interacting protein (1.0 μg) held on glutathione resin, phytochrome (1.0 μg) in solution, Pr and Pfr forms both tested; 60 min at 4 °C in pull-down buffer (100 mM Tris-HCl pH 7.8, 1 mM EDTA, 150 mM NaCl, 100 μg/ml BSA); western blot with oat22 and anti-GST. The settings on record: both partners purified.

T2 sequence (P06593 whole entry T418D): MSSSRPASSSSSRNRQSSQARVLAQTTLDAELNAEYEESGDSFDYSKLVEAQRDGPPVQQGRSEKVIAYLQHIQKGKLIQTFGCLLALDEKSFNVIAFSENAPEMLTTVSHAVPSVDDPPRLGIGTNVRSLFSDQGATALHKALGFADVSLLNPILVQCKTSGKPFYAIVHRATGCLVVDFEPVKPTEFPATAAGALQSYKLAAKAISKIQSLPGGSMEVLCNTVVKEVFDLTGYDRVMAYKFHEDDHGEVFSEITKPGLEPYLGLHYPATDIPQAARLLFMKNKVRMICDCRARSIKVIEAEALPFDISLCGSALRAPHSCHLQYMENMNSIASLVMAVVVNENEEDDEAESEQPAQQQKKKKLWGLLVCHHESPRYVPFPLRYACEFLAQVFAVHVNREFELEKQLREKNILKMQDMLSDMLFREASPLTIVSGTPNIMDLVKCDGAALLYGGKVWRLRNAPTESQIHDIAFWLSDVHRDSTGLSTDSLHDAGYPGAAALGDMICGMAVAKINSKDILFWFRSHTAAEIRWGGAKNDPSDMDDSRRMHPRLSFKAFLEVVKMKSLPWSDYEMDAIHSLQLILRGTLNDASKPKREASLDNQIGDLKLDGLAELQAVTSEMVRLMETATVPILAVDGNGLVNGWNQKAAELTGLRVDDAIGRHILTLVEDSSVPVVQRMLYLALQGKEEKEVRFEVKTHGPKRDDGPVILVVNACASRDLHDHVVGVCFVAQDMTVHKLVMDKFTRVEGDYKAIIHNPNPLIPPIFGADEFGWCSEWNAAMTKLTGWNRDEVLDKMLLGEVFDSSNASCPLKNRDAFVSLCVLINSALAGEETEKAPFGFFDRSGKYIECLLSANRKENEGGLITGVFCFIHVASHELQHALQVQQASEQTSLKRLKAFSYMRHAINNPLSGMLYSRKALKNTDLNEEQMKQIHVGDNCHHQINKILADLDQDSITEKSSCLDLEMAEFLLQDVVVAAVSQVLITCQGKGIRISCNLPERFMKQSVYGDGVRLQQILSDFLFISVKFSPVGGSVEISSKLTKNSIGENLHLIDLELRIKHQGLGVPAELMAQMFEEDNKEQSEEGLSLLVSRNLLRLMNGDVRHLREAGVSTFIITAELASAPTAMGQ

`Nc1ncnc2c1ncn2[C@@H]1O[C@H](COP(=O)(O)OP(=O)(O)OP(=O)(O)O)[C@@H](O)[C@H]1O` [ATP]: the Kd was determined as 870 nM at full-length AsphyA and 4760 nM at T418D AsphyA mutant.

B1: GST/strep-fused PIF3 (natural protein, UniProt O80536 1-524, looked up)
chain: MPLFELFRLTKAKLESAQDRNPSPPVDEVVELVWENGQISTQSQSSRSRNIPPPQANSSRAREIGNGSKTTMVDEIPMSVPSLMTGLSQDDDFVPWLNHHPSLDGYCSDFLRDVSSPVTVNEQESDMAVNQTAFPLFQRRKDGNESAPAASSSQYNGFQSHSLYGSDRARDLPSQQTNPDRFTQTQEPLITSNKPSLVNFSHFLRPATFAKTTNNNLHDTKEKSPQSPPNVFQTRVLGAKDSEDKVLNESVASATPKDNQKACLISEDSCRKDQESEKAVVCSSVGSGNSLDGPSESPSLSLKRKHSNIQDIDCHSEDVEEESGDGRKEAGPSRTGLGSKRSRSAEVHNLSERRRRDRINEKMRALQELIPNCNKVDKASMLDEAIEYLKSLQLQVQIMSMASGYYLPPAVMFPPGMGHYPAAAAAMAMGMGMPYAMGLPDLSRGGSSVNHGPQFQVSGMQQQPVAMGIPRVSGGGIFAGSSTIGNGSTRDLSGSKDQTTTNNNSNLKPIKRKQGSSDQFCGSS
notes: Probably Arabidopsis PIF3, as PIF1 and PIF4 are called Arabidopsis; not shown: GST, N-terminal, kept
With B1, the binding result in assay [1] is listed as “binds”.
